Test results as given in patent publication US4472428A, “Halogenated prostacyclins pharmaceutical use thereof and hydroxy intermediates therefore” (Teijin Limited, priority 1980, dated 1984).
In brackets after ≈: the same amount, converted by molar mass. Structures can show the parent of a compound that is named as a salt. Where two headings read alike, the source gives them in different places.

Columns and labels:
blood pressure [1] = experiment: action on blood pressure, intraduodenal administration to conscious rats; type: in vivo, rats (male SD); conditions: for mean blood pressure: N 4
Protocol: The prostocyclin derivatives of the invention were intraduodenally administered to conscious rats, and their action on the blood pressure was examined.
Male SD rats weighing about 200 g were used as experimental animals. These rats had been fasted for 16 hours before the start of the experiment. A catheter was inserted into the femoral artery of the rats under ether anesthesia, and then the rats were restrained within a Bollman cage. After more than 1 hour from awakening, each of the test compounds was intraduodenally administered.
The test compound was dissolved in a small amount of ethanol, and then diluted with 0.05M Tris buffer (pH 9) to adjust the final concentration of ethanol to not more than 5%. The mean blood pressure was measured by meaans of a pressure transducer through the catheter inserted into the femoral artery.

platelet aggregation [2] = experiment: extra vivo inhibitory activity of platelet aggregation after intraduodenal administration; type: in vivo, SD strain rats; conditions: for inhibition (%) (rate of platelet aggregation inhibition): 3 mg/kg i.d., blood drawn 30 min after administration, ADP, N 4
Protocol: extra vivo inhibitory activity of platelet aggregation:
The extra vivo platelet aggregation inhibitory activity of the prostacyclin derivatives of the invention were measured by using […]. The test compound of the invention in ethanol was diluted with 0.05M Tris buffer (pH 9.0) and as a control, only the 0.05M Tris buffer solution was used. These solutions were each intraduodenally administered in a dose of 1 ml/kg to SD strain rats weighing about 200 g which had been fasted for 16 hours. Thirty minutes after the administration, blood was drawn off from the aorta using trisodium citrate so that the ratio of the blood to 3.8% trisodium citrate was 9:1. The blood was centrifuged at a speed of 800 rpm for 10 minutes. The upper layer was separated as platelet-rich plasma (PRP). The lower layer was further centrifuged at a speed of 2800 rpm for 10 minutes. The upper layer was separated as platelet poor plasma (PPP). 250 microliters of the resulting PRP was taken into an aggregometer cuvette, and incubated at 37° C. for 2 minutes. Then, 25 microliters of a 1.25 μM ADP disodium solution adjusted by dissolving with 0.1M tris-HCl buffer (pH 8.0) was added. The aggregation curve was recorded for 3 minutes. The maximum degree of aggregation of platelets within this time period was read, and the rate of inhibition of platelet aggregation was calculated from the following equation.
Rate of platelet aggregation inhibition (%)=(1-(TD /TC)×100
TC : the transmittance of the control glroup (to which only the 0.05M Tris buffer solution was administered),
TD : the transmittance of the drug administered group.

blood pressure [3] = experiment: hypotensive activity, intravenous injection in anesthetized rats; type: in vivo, rats (male wister); conditions: for blood pressure lowering activity (in words): general statement; for ED20: Rattus norvegicus, iv, anesthetized rats, read-out: P-ED20 (dosage causing a 20% lowering of the mean blood pressure)
Protocol: (§1) Measurement of the hypotensive activity:
(§2) The actions of the prostacyclin derivatives of the invention on the blood pressure and heart rate of rats were examined by intravenous injection under anesthesia.
(§3) Male wister rats weighing about 250 g were used. Urethane (500 mg/kg) and α-chloralose (100 mg/kg) were intraperitoneally administered to the rats. The rats were anesthetized and fixed in place.
(§4) Each of the test compounds was dissolved in a small amount of ethanol and diluted with 0.05M Tris buffer saline (pH 9) to adjust the final ethanol concentration to not more than 5%. The solution was intravenously injected into the rats through a catheter inserted into the femoral vein.
(§5) The blood pressure of the rats was measured by a pressure transducer through a catheter inserted into the carotid artery of the rats. The heart rate was determined from the blood pressure pulse.
(§6) The action of the test compound on the blood pressure was expressed as the dosage (P-ED20, μg/kg) of the test compound which caused a 20% lowering of the mean blood pressure before administration of the compound. The action of the test compound on the heart rate was expressed as the dosage (H-ED10, μg/kg) of the test compound which caused a 10% increase of the heart rate from the heart rate before administration of the test compound.

platelet aggregation [4] = experiment: in vitro inhibitory activity of platelet aggregation (ADP-induced, rabbit PRP); type: cell-based, rabbit (Japanese domestic white male); conditions: for platelet aggregation inhibiting activity (in words): general statement; for IC50: Oryctolagus cuniculus, Platelet, rabbit PRP, 10 μM ADP, 37° C., read-out: IC50 (minimum concentration which inhibited more than 50% of platelet aggregation)
Protocol: (1) in vitro inhibitory activity of platelet aggregation:
The in vitro platelet aggregation inhibiting activities of the compounds of the invention were examined by using rabbits. Blood was withdrawn from the ear vein of Japanese domestic white male rabbits weighing 2.5 to 3.5 kg. A mixture of a 3.8% trisodium citrate solution and the blood in a ratio of 1:9 was centrifuged at a speed of 1000 rpm for 10 minutes. The upper layer was separated as platelet-rich plasma (PRP). The lower layer was further centrifuged at a speed of 2800 rpm for 10 minutes. The upper layer was separated as platelet-poor plasma (PPP). The number of platelets was adjusted to 6×10^5 /μl to 7×10^5 /μl by diluting the PRP with PPP. 25 microliters of the test compounds prepared as shown below was added in an amount of 25 to 250 microliters of PRP after the adjustment, and the mixture was pre-incubated at 37° C. for 2 minutes, and then 10 μM (final) of ADP was added. By using an aggregometer, changes in transmission were recorded.
The drug was dissolved in ethanol to a concentration of 10 mg/ml. When its activity was measured, it was used after being diluted with phosphate buffer (pH 7.4). Furthermore, after dilution with the buffer, the drug was left to stand at 0° C. for 4 hours, and the activity of the drug was similarly measured.
The rate of inhibition of platelet aggregation was determined from the following equation.
Inhibition rate (%)=(1-T/To)×100
To : the transmittance of the system containing the phosphate buffer,
T: the transmittance of the system to which the test drug was added.
The minimum concentration of the drug which inhibited more than 50% of platelet aggregation was shown as an IC50 value.

[5] = test system: platelet aggregation / blood pressure; conditions: cited from earlier work
heart rate = experiment: action on heart rate, intravenous injection in anesthetized rats; type: in vivo, rats (male wister); conditions: Rattus norvegicus, i.v., read-out: H-ED10 (dosage causing a 10% increase of the heart rate)
Protocol: as §1, §2, §3, §4, §5, §6

[6] = test system: blood pressure / platelet aggregation; experiment: ratio of the blood pressure lowering activity and the platelet aggregation inhibiting activity; parameters: species or system rats (blood pressure); rabbits (platelets); conditions: for P-ED20 / platelet IC50: P-ED20 rats i.v., IC50 rabbit platelets in vitro; for selectivity of pharmacological activity (in words): compared with PGI2
Protocol: (2) From the results obtained in Examples 100 and 101, the ratio of the blood pressure lowering activity and the platelet aggregation inhibiting activity was calculated. The result is shown in Table 3 together with the ratio obtained with PGI2.

[7] = test system: 15-position dehydrogenase; conditions: cited from earlier work
[8] = cited from earlier work
[9] = chemical stability at pH 7.4 (half period from UV absorption at 210 nm); type: physicochemical; conditions: pH 7.4 phosphate buffer, room temperature, UV 210 nm
Protocol: Test for the chemical stability of (5E)-5-chloro-PGI2 sodium salt (No. 686) and (5Z)-5-chloro-PGI2 sodium salt (No. 5Z-686):
6.54 ml of 0.02M potassium dihydrogen phosphate and 29.0 ml of 0.01M disodium hydrogen phosphate were mixed, and the pH of the mixture was measured by a pH meter.
The solution of (5E)-5-chloro-PGI2 sodium salt obtained in Example 35 and the solution of (5Z)-5-chloro-PGI2 sodium salt obtained in Example 36 were each added to the above buffer mixture, and their UV spectra were periodically recorded at room temperature. From the absorption values at 210 nm, the half periods of these salts were determined.

Lewis lung carcinoma = experiment: activity of inhibiting metastasis of a malignant tumor; type: in vivo, mice
Protocol: Measurement of the activity of inhibiting metastasis of a malignant tumor:
Mice were used as experimental animals. Lewis lung carcinoma (4×10^5 cells/100 μl) was transplanted into the foot pad of each mouse. For seven days from the 5th to the 11th day after the transplantation, the compound No. 686 of the invention was intraperitoneally administered to the mouse once a day. On the 12th day, the foot at the primary nest was cut off, and the weight of the cut foot (primary nest portion) was measured. On the 20th day after the transplantation, the number of nests which metastasized to the lungs was measured.

[10] = 4 hr standing at 0° C. after dilution with phosphate buffer pH 7.4
[11] = 10 μg/kg/day i.p., day 5 to 11, 5 animals

CCCCCC(O)C=CC1C(O)CC2OC(=CCCCC(=O)O)CC21 (centres unmarked) [Sodium salt of PGI2, reference compound]
mean blood pressure (blood pressure [1]; 3 mg/kg i.d., 0 min): 109 ± 1
mean blood pressure (blood pressure [1]; 3 mg/kg i.d., 5 min): 84 ± 3
mean blood pressure (blood pressure [1]; 3 mg/kg i.d., 10 min): 101 ± 4
mean blood pressure (blood pressure [1]; 3 mg/kg i.d., 15 min): 110 ± 2
mean blood pressure (blood pressure [1]; 3 mg/kg i.d., 30 min): 109 ± 1
mean blood pressure (blood pressure [1]; 3 mg/kg i.d., 60 min): 107 ± 2
mean blood pressure (blood pressure [1]; 3 mg/kg i.d., 120 min): 103 ± 2
blood pressure lowering activity (in words) (blood pressure [1]; Table 4, i.d., conscious rats): stronger blood pressure lowering activity than the compound No. 688 of the present invention (especially five minutes later)
inhibition (%) (rate of platelet aggregation inhibition) (platelet aggregation [2]): 56.5 ± 11.3%

5-Chloro-PGI2 [Compound 500]
blood pressure lowering activity (in words) (blood pressure [3]): low blood pressure lowering activity
platelet aggregation inhibiting activity (in words) (platelet aggregation [4]): high platelet aggregation inhibiting activity

CCCCCC(O)C=CC1C(O)CC2OC(=C(Cl)CCCC(=O)OC)CC21 (centres unmarked) [Compound 636, (5E)-5-chloro-PGI2 methyl ester]
IC50 (platelet aggregation [4]; 0 hr): 0.62 µg/mL (≈ 1.55 µM)
IC50 (platelet aggregation [4]; [10]): 0.51 µg/mL (≈ 1.27 µM)

CCCCC[C@H](O)/C=C/[C@@H]1[C@H]2C/C(=C/CCCC(=O)O)O[C@H]2C[C@H]1O [PGI2, Prostaglandin I2, reference compound]
doses required for platelet aggregation inhibiting action and antihypertensive action [5]: almost equal to each other
ED10 (heart rate): 0.04 µg/kg
P-ED20 / platelet IC50 [6]: 4.3
metabolism in vivo [7]: rapidly metabolized by a 15-position dehydrogenase
half period of its activity at physiological pH [8]: only about several minutes
ED20 (blood pressure [3]): 0.02 µg/kg
IC50 (platelet aggregation [4]; 0 hr): 0.0047 µg/mL (≈ 0.0133 µM)
IC50 (platelet aggregation [4]; [10]): 0.56 µg/mL (≈ 1.59 µM)

CCCCCC(O)C=CC1C(O)CC2OC(=CCCCC(=O)O)C(F)C21 (centres unmarked) [Compound 688, sodium salt of 7-fluoro-PGI2]
ED10 (heart rate): 1.9 µg/kg
P-ED20 / platelet IC50 [6]: 14.0
selectivity of pharmacological activity (in words) [6]: higher selectivity of pharmacological activity than PGI2
mean blood pressure (blood pressure [1]; 1 mg/kg i.d., 0 min): 102 ± 4
mean blood pressure (blood pressure [1]; 1 mg/kg i.d., 5 min): 101 ± 4
mean blood pressure (blood pressure [1]; 1 mg/kg i.d., 10 min): 97 ± 3
mean blood pressure (blood pressure [1]; 1 mg/kg i.d., 15 min): 99 ± 4
mean blood pressure (blood pressure [1]; 1 mg/kg i.d., 30 min): 104 ± 3
mean blood pressure (blood pressure [1]; 1 mg/kg i.d., 60 min): 100 ± 4
mean blood pressure (blood pressure [1]; 1 mg/kg i.d., 120 min): 100 ± 2
mean blood pressure (blood pressure [1]; 3 mg/kg i.d., 0 min): 104 ± 2
mean blood pressure (blood pressure [1]; 3 mg/kg i.d., 5 min): 100 ± 3
mean blood pressure (blood pressure [1]; 3 mg/kg i.d., 10 min): 100 ± 3
mean blood pressure (blood pressure [1]; 3 mg/kg i.d., 15 min): 103 ± 2
mean blood pressure (blood pressure [1]; 3 mg/kg i.d., 30 min): 102 ± 3
mean blood pressure (blood pressure [1]; 3 mg/kg i.d., 60 min): 102 ± 2
mean blood pressure (blood pressure [1]; 3 mg/kg i.d., 120 min): 100 ± 2
ED20 (blood pressure [3]): 0.7 µg/kg
IC50 (platelet aggregation [4]; 0 hr): 0.05 µg/mL
IC50 (platelet aggregation [4]; [10]): 0.05 µg/mL
inhibition (%) (rate of platelet aggregation inhibition) (platelet aggregation [2]): 87.5 ± 5.8%
platelet aggregation inhibiting activity (in words) (platelet aggregation [2]; Table 5, 3 mg/kg i.d., rats): stronger platelet aggregating activity than the sodium salt of PGI2

CCCCCC(O)C=CC1C(O)CC2OC(=C(Cl)CCCC(=O)O)CC21 (centres unmarked) [Compound 5Z-686, (5Z)-5-chloro-PGI2, sodium salt]
half period [9]: more than 1 month

CCCCCC(O)C=CC1C(O)CC2OC(=C(Cl)CCCC(=O)O)CC21 (centres unmarked) [Compound 686, (5E)-5-chloro-PGI2, sodium salt]
half-life [9]: ~22 days
Number of nests which metastasized to the lungs (measured on the 20th day) (Lewis lung carcinoma; [11]): 25.6 ± 12.0
Weight of the primary next portion measured on the 12th day (Lewis lung carcinoma; [11]): 2.17 ± 0.86 g
metastasis of the primary nest to the lungs (in words) (Lewis lung carcinoma; Table 6): inhibited metastasis of the primary nest to the lungs
primary nest (in words) (Lewis lung carcinoma; Table 6): reduced the primary nest
ED10 (heart rate): > 10 µg/kg
P-ED20 / platelet IC50 [6]: 17.1
selectivity of pharmacological activity (in words) [6]: higher selectivity of pharmacological activity than PGI2
ED20 (blood pressure [3]): 2.4 µg/kg
IC50 (platelet aggregation [4]; 0 hr): 0.14 µg/mL
IC50 (platelet aggregation [4]; [10]): 0.12 µg/mL

CCCCCC(O)C=CC1C(O)CC2OC(=CCCCC(=O)O)C(F)C21 (centres unmarked) [Compound 501, 7-Fluoro-PGI2]
blood pressure lowering activity (in words) (blood pressure [3]): low blood pressure lowering activity
platelet aggregation inhibiting activity (in words) (platelet aggregation [4]): high platelet aggregation inhibiting activity

CCCCCC(O)C=CC1C(O)CC2OC(=CCCCC(=O)OC)C(F)C21 (centres unmarked) [Compound 637, 7-fluoro-PGI2 methyl ester]
IC50 (platelet aggregation [4]; 0 hr): 0.34 µg/mL (≈ 0.884 µM)
IC50 (platelet aggregation [4]; [10]): 0.38 µg/mL (≈ 0.988 µM)
